Assay results: US10028992B2, “Methods of treating muscular dystrophy” (BOARD OF REGENTS OF THE NEVADA SYSTEM OF HIGHER EDUCATION …, priority 2012, dated 2018)
“And” between values parts separate entries of the source, which are not always exact repeats. Identical values can stand only once.

Test system: α7 integrin promoter
Experiment: muscle cell-based assay: α7βgal+/− myoblasts/myotubes, LacZ reporter, β-galactosidase cleavage of FDG
Set-up: species or system mouse; Results in α7+/− β-galactosidase assay: scale not given here
Settings: for EC50: read-out: Fit LogAC50 (converted); for Fit Curve Class: key not given; for Results in a α7+/− β-galactosidase assay, Myotubes, 0.5 uM: compound at 0.5 uM; for Results in a α7+/− β-galactosidase assay, Myotubes, 1 uM: compound at 1 uM; for Results in a α7+/− β-galactosidase assay, Myotubes, 5 uM: compound at 5 uM; for Results in a α7+/− β-galactosidase assay, Myotubes, 10 uM: compound at 10 uM; for Results in a α7+/− β-galactosidase assay, Myotubes, 20 uM: compound at 20 uM; for Results in a α7+/− β-galactosidase assay, Myotubes, 40 uM: compound at 40 uM; for Results in α7+/− β-galactosidase assay: Myoblasts
In short: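 Fluorescein generated from FDG by β-galactosidase reports α7 integrin promoter activity in differentiated myoblasts from α7+/− LacZ knock-in pups. Screening hits then went to dose-response, western blotting and a myostatin counterscreen.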

[1] = Mus musculus, given as log AC50 (negative values)
[2] = curve fit, activity at zero concentration

Row | SMILES | Results in α7+/− β-galactosidase assay (0.5 uM) | Results in α7+/− β-galactosidase assay (1 uM) | Results in α7+/− β-galactosidase assay (5 uM) | Results in α7+/− β-galactosidase assay (10 uM) | Results in α7+/− β-galactosidase assay (20 uM) | Results in α7+/− β-galactosidase assay (40 uM) | further results
1 | COC(=O)C1=NNC2(C)C(=O)N(c3ccc(C)cc3)C(=O)C12 (stereo not drawn) [Compound 177] | – | – | – | – | – | – | EC50 [1]: 10 µM; Score (Table 12 compound data): 42; Fit Curve Class (curve class number): 2.2; Fit HillSlope (curve fit): 4.9549; Fit Zero Activity [%] [2]: 0.9153%
2 | C/C(=N\OCC(=O)OC(C)C(=O)Nc1ccc(C(N)=O)cc1)c1ccc2c(c1)OCO2 (stereo not drawn) [Compound 70] | – | – | – | – | – | – | AC50 (Mus musculus, Table 12, log of AC50, given with negative sign, unit of AC50 not given, read-out: Fit Log AC50 (converted)): 4.47 µM; Fit HillSlope (Table 12, curve fit): 1.2876; Fit Zero Activity [%] (Table 12, fitted activity at zero concentration): −19.1057%; Fit Curve Class (Table 12): 2.1; Score (Table 12 Compound data, concentration-response curve fit): 44
3 | CC(C(=O)Nc1ccc(C#N)cc1)N(C)CC(=O)Nc1cccc(F)c1 (stereo not drawn) [Compound 186] | – | – | – | – | – | – | EC50 [1]: 3.98 µM; Score (Table 12 compound data): 42; Fit Curve Class (curve class number): 2.1; Fit HillSlope (curve fit): 0.9; Fit Zero Activity [%] [2]: −45.5302%
4 | Cc1cccc2c(/N=N/c3ccc(S(=O)(=O)Nc4ccc(Cl)cc4)cc3[N+](=O)[O-])c(O)[nH]c12 [drawing 397] | – | – | – | – | – | – | Results in a α7+/− β-galactosidase assay, Myotubes, 0.5 uM: −0.03979; Results in a α7+/− β-galactosidase assay, Myotubes, 1 uM: −0.05535; Results in a α7+/− β-galactosidase assay, Myotubes, 5 uM: −0.02922; Results in a α7+/− β-galactosidase assay, Myotubes, 10 uM: 0.02994; Results in a α7+/− β-galactosidase assay, Myotubes, 20 uM: −0.2047; Results in a α7+/− β-galactosidase assay, Myotubes, 40 uM: −0.2727
5 | COC(=O)c1cc(S(=O)(=O)NCC2CCN(Cc3ccc(Cl)cc3)CC2)cn1C [drawing 672] | 0.2815 | 0.1861 | −0.03678 | −0.03865 | 0.1247 | 0.0618 | –
6 | N#Cc1nc(COc2ccccc2)oc1N1CCCC1 [drawing 466] | – | – | – | – | – | – | Results in a α7+/− β-galactosidase assay, Myotubes, 0.5 uM: −0.1447; Results in a α7+/− β-galactosidase assay, Myotubes, 1 uM: −0.2423; Results in a α7+/− β-galactosidase assay, Myotubes, 5 uM: −0.3897; Results in a α7+/− β-galactosidase assay, Myotubes, 10 uM: −0.2892; Results in a α7+/− β-galactosidase assay, Myotubes, 20 uM: −0.5781; Results in a α7+/− β-galactosidase assay, Myotubes, 40 uM: −0.8948
7 | CC(=O)Nc1ccc(NC(=O)C/C(C)=N/NC(=O)COc2cc(C)c(Br)cc2Br)cc1 [drawing 657] | −0.2303 | −0.07096 | 0.03872 | −0.07468 | −0.3089 | −0.4449 | –
8 | COc1ccc(Cl)cc1NC(=O)c1cc(-c2cc(C)ccc2O)[nH]n1 [drawing 581] | 0.01879 | 0.1148 | −0.07708 | −0.1804 | −0.08756 | −0.06105 | –
9 | OC(c1nc2cc(F)ccc2[nH]1)C(O)c1nc2cc(F)ccc2[nH]1 (stereo not drawn) [drawing 365] | – | – | – | – | – | – | Results in a α7+/− β-galactosidase assay, Myotubes, 0.5 uM: 0.0667; Results in a α7+/− β-galactosidase assay, Myotubes, 1 uM: 0.1032; Results in a α7+/− β-galactosidase assay, Myotubes, 5 uM: 0.2081; Results in a α7+/− β-galactosidase assay, Myotubes, 10 uM: 0.01319; Results in a α7+/− β-galactosidase assay, Myotubes, 20 uM: −0.09026; Results in a α7+/− β-galactosidase assay, Myotubes, 40 uM: −0.08066
10 | Cc1ccc2c(c1)/C(=C/c1ccccc1F)C(=O)N2 [drawing 667] | −0.02616 | 0.02782 | −0.04422 | −0.06595 | −0.1695 | −0.3533 | –
11 | CCC(CC)C(=O)Nc1c(C(=O)N2CCN(c3ccccc3)CC2)oc2ccccc12 [drawing 687] | 0.02952 | 0.08671 | 0.02479 | −0.0251 | 0.2442 | 0.3404 | –
12 | O=CN1CCN(C(=O)CC(c2ccccc2)c2cc(Br)ccc2O)CC1 (stereo not drawn) [drawing 695] | 0.1751 | 0.03283 | 0.07723 | −0.1323 | 0.00725 | −0.04551 | –
13 | Cc1ccc2c(c1)/C(=C/c1ccc(F)cc1)C(=O)N2 [drawing 317] | – | – | – | – | – | – | Results in a α7+/− β-galactosidase assay, Myotubes, 0.5 uM: 0.09119; Results in a α7+/− β-galactosidase assay, Myotubes, 1 uM: 0.07633; Results in a α7+/− β-galactosidase assay, Myotubes, 5 uM: 0.0903; Results in a α7+/− β-galactosidase assay, Myotubes, 10 uM: −0.07782; Results in a α7+/− β-galactosidase assay, Myotubes, 20 uM: −0.4653; Results in a α7+/− β-galactosidase assay, Myotubes, 40 uM: −0.4823
14 | CN(C)/C(S)=N/c1cccc(C(F)(F)F)c1 [Compound 172] | – | – | – | – | – | – | EC50 [1]: 10 µM; Score (Table 12 compound data): 42; Fit Curve Class (curve class number): 2.2; Fit HillSlope (curve fit): 2.3332; Fit Zero Activity [%] [2]: 8%
15 | COc1ccc(C(=O)/C=C2\C(=O)Nc3ccccc32)cc1OC [drawing 628] | 0.07545 | −0.02919 | 0.1241 | 0.1545 | −0.335 | −0.4748 | –
16 | CCCN1C2CCCC1CC(NC(=O)c1cccc([N+](=O)[O-])c1)C2 (stereo not drawn) [Compound 164] | – | – | – | – | – | – | Score (Table 12 compound data): 42; Fit Curve Class (curve class number): 2.1; Fit HillSlope (curve fit): 4.5045; Fit Infinite Activity [%] (curve fit, activity at infinite concentration): 91.825%; Fit Zero Activity [%] [2]: 0.8371%; Fit LogAC50 (given as log AC50 (negative values)): −5
17 | COc1cccc(CN2CCN(Cc3ccco3)CC2)c1.O=C(O)C(=O)O [drawing 322] | – | – | – | – | – | – | Results in a α7+/− β-galactosidase assay, Myotubes, 0.5 uM: 0.1434; Results in a α7+/− β-galactosidase assay, Myotubes, 1 uM: 0.2622; Results in a α7+/− β-galactosidase assay, Myotubes, 5 uM: 0.003264; Results in a α7+/− β-galactosidase assay, Myotubes, 10 uM: −0.05758; Results in a α7+/− β-galactosidase assay, Myotubes, 20 uM: −0.1598; Results in a α7+/− β-galactosidase assay, Myotubes, 40 uM: −0.2345
18 | COc1cc(/C=C/CN2CCN(Cc3ccc(C)o3)C(CCO)C2)ccc1O (stereo not drawn) [drawing 377] | – | – | – | – | – | – | Results in a α7+/− β-galactosidase assay, Myotubes, 1 uM: 0.1027 and 0.08207
19 | CCCc1nnc(SCC(=O)NC2CCCC2)n1CCOC [drawing 675] | 0.1622 | 0.07572 | −0.08939 | −0.107 | −0.1998 | −0.413 | –
20 | C=CCOc1ccc(C(=O)/C=C2\C(=O)Nc3ccccc32)cc1 [drawing 561] | −0.1092 | −0.1536 | −0.257 | −0.2991 | −0.2121 | −0.7606 | –
21 | NS(=O)(=O)c1ccc(NC(=O)CN2CCc3ccccc32)cc1 [drawing 654] | −0.2007 | −0.06684 | 0.3068 | 0.002758 | −0.1257 | −0.1195 | –
22 | N#Cc1ccc(Sc2nc3ccccc3[nH]2)cc1C#N [Compound 218] | – | – | – | – | – | – | EC50 [1]: 10 µM; Score (Table 12 compound data): 42; Fit Curve Class (curve class number): 2.2; Fit HillSlope (curve fit): 3.6272; Fit Zero Activity [%] [2]: 13.7566%
23 | Cc1cccc(Sc2nc(-c3ccccc3)ccc2C#N)c1 [drawing 598] | −0.2243 | −0.2124 | 0.4228 | 0.1696 | −0.08803 | −0.1146 | –
24 | CC(C)Oc1ccc(C(=O)/C=C2\C(=O)Nc3ccccc32)cc1 [drawing 531] | 0.3276 | 0.2225 | −0.3766 | −0.6765 | −0.7978 | −0.9731 | –
25 | CCO/C(C)=C1\C(=O)Nc2ccccc21 [drawing 705] | −0.00711 | 0.04915 | 0.06742 | 0.09535 | −0.0389 | −0.1063 | –
26 | COc1ccc(C(=O)Cn2nnc(-c3ccccc3NC(=O)c3ccco3)n2)cc1 [drawing 465] | – | – | – | – | – | – | Results in a α7+/− β-galactosidase assay, Myotubes, 0.5 uM: 0.1086; Results in a α7+/− β-galactosidase assay, Myotubes, 1 uM: 0.1215; Results in a α7+/− β-galactosidase assay, Myotubes, 5 uM: −0.1502; Results in a α7+/− β-galactosidase assay, Myotubes, 10 uM: −0.3147; Results in a α7+/− β-galactosidase assay, Myotubes, 20 uM: −0.5196; Results in a α7+/− β-galactosidase assay, Myotubes, 40 uM: −0.8196
27 | O=C(NC(=S)NCCC1=CCCCC1)c1ccc(Br)o1 [Compound 205] | – | – | – | – | – | – | EC50 [1]: 7.08 µM; Score (Table 12 compound data): 42; Fit Curve Class (curve class number): 2.1; Fit HillSlope (curve fit): 1.4781; Fit Zero Activity [%] [2]: −40.2978%
28 | O=S(=O)(N/C(=N/C1CCCCC1)c1ccccc1F)c1ccccc1 [Compound 156] | – | – | – | – | – | – | EC50 [1]: 10 µM; Score (Table 12 compound data): 42; Fit Curve Class (curve class number): 2.2; Fit HillSlope (curve fit): 2.5334; Fit Zero Activity [%] [2]: −0.0336%
29 | O=C(c1ccccc1)N1CCN(S(=O)(=O)c2cccs2)CC1 [drawing 549] | 0.05147 | 0.1507 | 0.1856 | −0.01279 | 0.05474 | 0.09083 | –
